Test results: patent US11278499B2, “Oral drug dosage form comprising various release profiles” (Triastek, Inc., priority 2015, dated 2022)

Test: Release of benzoic acid from pie-shaped-compartment dosage form, UV 226 nm
Format: physicochemical
Conditions: PEG8000 flat tablet with pie shaped compartment; pH 8 Na2HPO4 solution, 37° C., 100 rpm; FIG. 18C
Protocol: The release profile of the benzoic acid from the dosage form was measured as the following method. Na2HPO4 solution of pH 8 was prepared as dissolvent of benzoic acid. Benzoic acid solution of 120 μg/mL was serially diluted to 30 μg/mL, 15 μg/m, 7.5 μg/m, 3.75 μg/mL, and 1.875 μg/mL solutions, whose absorbance at 226 nm was measured using a UV spectrophotometer. The numbers obtained were treated with linear regression to generate a standard curve of benzoic acid concentration with the formula y=0.0599x+0.0347. To measure the released amount of benzoic acid, the dosage form was dissolved in degassed pH 8 Na2HPO4 solution at 37° C.±0.5° C. and […] at 100 rpm. 5 mL solution was collected from the solution at each time point to measure the concentration of benzoic acid with 5 mL dissolvent added back to the solution. The collected solution was filtered through 0.45 um membrane before transferred to an UV spectrophotometer for measuring the absorbance at 226 nm. The percentage of benzoic acid released was calculated using the following formula: […]
Wherein Cn means concentrate measured, Vtmeans total solution volume,
Vs means sample volume, Qbenzoic acid means amout of benzoic acid in the dosage form

Question: Which “release profile of the benzoic acid” value does the source give for O=C(O)c1ccccc1 [benzoic acid, Benzoic acid] here?
Answer: matches a model profile
